Measured values reported in US20100099561A1, “HETEROBICYCLIC ALKYLTHIO-BRIDGED ISOXAZOLINES” (E.I. DU PONT DE NEMOURS AND COMPANY, priority 2008, published 2010).

Experiments:
Assay type in all cases: in vivo
[1] = system: large crabgrass (Digitaria sanguinalis); assay: Test A preemergence, large crabgrass; conditions: 0 to 100 scale (0 no effect, 100 complete control)
How it was run: (§1)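 Seeds sown in loam soil–sand blend; test chemicals in non-phytotoxic solvent mixture with surfactant applied preemergence as directed soil spray, or postemergence to plants 2–10 cm tall at one- to two-leaf stage. Greenhouse, ~10 days; visual injury rated against untreated controls, 0 (no effect) to 100 (complete control).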

rice (Oryza sativa) = assay: Test B flooded paddy test, rice; conditions: Flood, scale 0 to 100
How it was run: (§2)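 Rice, umbrella sedge, ducksalad and barnyardgrass at 2-leaf stage; pots flooded to 3 cm, compounds applied into paddy water, depth held throughout. Greenhouse 13 to 15 days, then visual rating vs untreated controls on 0–100 scale (0 no effect, 100 complete control); dash means no test result.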

[2] = system: barnyardgrass (Echinochloa crus-galli); assay: Test B flooded paddy test, barnyardgrass; conditions: Flood
How it was run: as §2

corn (Zea mays) [3] = assay: Test A postemergence, corn; conditions: 0 to 100 scale (0 no effect, 100 complete control)
How it was run: as §1

[4] = system: morningglory (Ipomoea spp.); assay: Test A postemergence, morningglory; conditions: 0 to 100 scale (0 no effect, 100 complete control)
How it was run: as §1

[5] = system: umbrella sedge (Cyperus difformis); assay: Test B flooded paddy test, umbrella sedge; conditions: Flood, scale 0 to 100
How it was run: as §2

[6] = system: giant foxtail (Setaria faberi); assay: Test A preemergence, giant foxtail; conditions: 0 to 100 scale (0 no effect, 100 complete control)
How it was run: as §1

[7] = system: large crabgrass (Digitaria sanguinalis); assay: Test A postemergence, large crabgrass; conditions: 0 to 100 scale (0 no effect, 100 complete control)
How it was run: as §1

[8] = system: barnyardgrass (Echinochloa crus-galli); assay: Test A postemergence, barnyardgrass; conditions: 0 to 100 scale (0 no effect, 100 complete control)
How it was run: as §1

[9] = system: ducksalad (Heteranthera limosa); assay: Test B flooded paddy test, ducksalad; conditions: Flood, scale 0 to 100
How it was run: as §2

[10] = system: giant foxtail (Setaria faberi); assay: Test A postemergence, giant foxtail; conditions: 0 to 100 scale (0 no effect, 100 complete control)
How it was run: as §1

[11] = system: pigweed (Amaranthus retroflexus); assay: Test A postemergence, pigweed; conditions: 0 to 100 scale (0 no effect, 100 complete control)
How it was run: as §1

[12] = system: wheat (Triticum aestivum); assay: Test A postemergence, wheat; conditions: 0 to 100 scale (0 no effect, 100 complete control)
How it was run: as §1

[13] = system: pigweed (Amaranthus retroflexus); assay: Test A preemergence, pigweed; conditions: 0 to 100 scale (0 no effect, 100 complete control)
How it was run: as §1

[14] = system: velvetleaf (Abutilon theophrasti); assay: Test A preemergence, velvetleaf; conditions: 0 to 100 scale (0 no effect, 100 complete control)
How it was run: as §1

corn (Zea mays) [15] = assay: Test A preemergence, corn; conditions: 0 to 100 scale (0 no effect, 100 complete control)
How it was run: as §1

[16] = system: barnyardgrass (Echinochloa crus-galli); assay: Test A preemergence, barnyardgrass; conditions: 0 to 100 scale (0 no effect, 100 complete control)
How it was run: as §1

[17] = system: wheat (Triticum aestivum); assay: Test A preemergence, wheat; conditions: 0 to 100 scale (0 no effect, 100 complete control)
How it was run: as §1

[18] = system: morningglory (Ipomoea spp.); assay: Test A preemergence, morningglory; conditions: 0 to 100 scale (0 no effect, 100 complete control)
How it was run: as §1

[19] = system: velvetleaf (Abutilon theophrasti); assay: Test A postemergence, velvetleaf; conditions: 0 to 100 scale (0 no effect, 100 complete control)
How it was run: as §1

[20] = 250 g ai/ha, scale 0 to 100 (0 no effect, 100 complete control)

## CCn1c(=O)c(CS(=O)(=O)C2=NOC(C)(C)C2)nc2cccnc21 [Compound 57]
[1]; 125 g ai/ha
  Plant response rating, Crabgrass, Large: 40
[1]; 500 g ai/ha
  Plant response rating, Crabgrass, Large: 50
Rice (Oryza sativa); 31 g ai/ha
  Plant response rating, Rice: 0
Rice (Oryza sativa); 62 g ai/ha
  Plant response rating, Rice: 0
Rice (Oryza sativa); 125 g ai/ha
  Plant response rating, Rice: 0
Rice (Oryza sativa); 250 g ai/ha
  Plant response rating, Rice: 0
[2]; 31 g ai/ha, scale 0 to 100
  Plant response rating, Barnyardgrass: 0
[2]; 62 g ai/ha, scale 0 to 100
  Plant response rating, Barnyardgrass: 0
[2]; 125 g ai/ha, scale 0 to 100
  Plant response rating, Barnyardgrass: 0
[2]; [20]
  Plant response rating, Barnyardgrass: 0
Corn (Zea mays) [3]; 125 g ai/ha
  Plant response rating, Corn: 0
Corn (Zea mays) [3]; 500 g ai/ha
  Plant response rating, Corn: 0
[4]; 125 g ai/ha
  Plant response rating, Morningglory: 0
[4]; 500 g ai/ha
  Plant response rating, Morningglory: 0
[5]; 31 g ai/ha
  Plant response rating, Sedge, Umbrella: 0
[5]; 62 g ai/ha
  Plant response rating, Sedge, Umbrella: 0
[5]; 125 g ai/ha
  Plant response rating, Sedge, Umbrella: 0
[5]; 250 g ai/ha
  Plant response rating, Sedge, Umbrella: 0
[6]; 125 g ai/ha
  Plant response rating, Foxtail, Giant: 0
[6]; 500 g ai/ha
  Plant response rating, Foxtail, Giant: 40
[7]; 125 g ai/ha
  Plant response rating, Crabgrass, Large: 10
[7]; 500 g ai/ha
  Plant response rating, Crabgrass, Large: 40
[8]; 125 g ai/ha
  Plant response rating, Barnyardgrass: 0
[8]; 500 g ai/ha
  Plant response rating, Barnyardgrass: 30
[9]; 31 g ai/ha
  Plant response rating, Ducksalad: 0
[9]; 62 g ai/ha
  Plant response rating, Ducksalad: 0
[9]; 125 g ai/ha
  Plant response rating, Ducksalad: 0
[9]; 250 g ai/ha
  Plant response rating, Ducksalad: 0
[10]; 125 g ai/ha
  Plant response rating, Foxtail, Giant: 0
[10]; 500 g ai/ha
  Plant response rating, Foxtail, Giant: 30
[11]; 125 g ai/ha
  Plant response rating, Pigweed: 0
[11]; 500 g ai/ha
  Plant response rating, Pigweed: 0
[12]; 125 g ai/ha
  Plant response rating, Wheat: 0
[12]; 500 g ai/ha
  Plant response rating, Wheat: 0
[13]; 125 g ai/ha
  Plant response rating, Pigweed: 0
[13]; 500 g ai/ha
  Plant response rating, Pigweed: 0
[14]; 125 g ai/ha
  Plant response rating, Velvetleaf: 0
[14]; 500 g ai/ha
  Plant response rating, Velvetleaf: 0
Corn (Zea mays) [15]; 125 g ai/ha
  Plant response rating, Corn: 0
Corn (Zea mays) [15]; 500 g ai/ha
  Plant response rating, Corn: 0
[16]; 125 g ai/ha
  Plant response rating, Barnyardgrass: 0
[16]; 500 g ai/ha
  Plant response rating, Barnyardgrass: 40
[17]; 125 g ai/ha
  Plant response rating, Wheat: 0
[17]; 500 g ai/ha
  Plant response rating, Wheat: 0
[18]; 125 g ai/ha
  Plant response rating, Morningglory: 0
[18]; 500 g ai/ha
  Plant response rating, Morningglory: 0
[19]; 125 g ai/ha
  Plant response rating, Velvetleaf: 0
[19]; 500 g ai/ha
  Plant response rating, Velvetleaf: 0

## CC1(C)CC([S+]([O-])Cc2c(C(F)(F)C(F)(F)F)nc3n(c2=O)CCC3)=NO1 (stereo not drawn) [Compound 27]
[1]; 125 g ai/ha
  Plant response rating, Crabgrass, Large: 70
[1]; 500 g ai/ha
  Plant response rating, Crabgrass, Large: 90
Rice (Oryza sativa); 31 g ai/ha
  Plant response rating, Rice: 0
Rice (Oryza sativa); 62 g ai/ha
  Plant response rating, Rice: 0
Rice (Oryza sativa); 125 g ai/ha
  Plant response rating, Rice: 0
Rice (Oryza sativa); 250 g ai/ha
  Plant response rating, Rice: 0
[2]; 31 g ai/ha, scale 0 to 100
  Plant response rating, Barnyardgrass: 0
[2]; 62 g ai/ha, scale 0 to 100
  Plant response rating, Barnyardgrass: 0
[2]; 125 g ai/ha, scale 0 to 100
  Plant response rating, Barnyardgrass: 0
[2]; [20]
  Plant response rating, Barnyardgrass: 0
Corn (Zea mays) [3]; 125 g ai/ha
  Plant response rating, Corn: 0
Corn (Zea mays) [3]; 500 g ai/ha
  Plant response rating, Corn: 0
[4]; 125 g ai/ha
  Plant response rating, Morningglory: 0
[4]; 500 g ai/ha
  Plant response rating, Morningglory: 40
[5]; 31 g ai/ha
  Plant response rating, Sedge, Umbrella: 0
[5]; 62 g ai/ha
  Plant response rating, Sedge, Umbrella: 0
[5]; 125 g ai/ha
  Plant response rating, Sedge, Umbrella: 0
[5]; 250 g ai/ha
  Plant response rating, Sedge, Umbrella: 0
[6]; 125 g ai/ha
  Plant response rating, Foxtail, Giant: 60
[6]; 500 g ai/ha
  Plant response rating, Foxtail, Giant: 90
[7]; 125 g ai/ha
  Plant response rating, Crabgrass, Large: 40
[7]; 500 g ai/ha
  Plant response rating, Crabgrass, Large: 80
[8]; 125 g ai/ha
  Plant response rating, Barnyardgrass: 40
[8]; 500 g ai/ha
  Plant response rating, Barnyardgrass: 70
[9]; 31 g ai/ha
  Plant response rating, Ducksalad: 0
[9]; 62 g ai/ha
  Plant response rating, Ducksalad: 0
[9]; 125 g ai/ha
  Plant response rating, Ducksalad: 0
[9]; 250 g ai/ha
  Plant response rating, Ducksalad: 0
[10]; 125 g ai/ha
  Plant response rating, Foxtail, Giant: 40
[10]; 500 g ai/ha
  Plant response rating, Foxtail, Giant: 70
[11]; 125 g ai/ha
  Plant response rating, Pigweed: 0
[11]; 500 g ai/ha
  Plant response rating, Pigweed: 30
[12]; 125 g ai/ha
  Plant response rating, Wheat: 0
[12]; 500 g ai/ha
  Plant response rating, Wheat: 50
[13]; 125 g ai/ha
  Plant response rating, Pigweed: 0
[13]; 500 g ai/ha
  Plant response rating, Pigweed: 0
[14]; 125 g ai/ha
  Plant response rating, Velvetleaf: 0
[14]; 500 g ai/ha
  Plant response rating, Velvetleaf: 60
Corn (Zea mays) [15]; 125 g ai/ha
  Plant response rating, Corn: 0
Corn (Zea mays) [15]; 500 g ai/ha
  Plant response rating, Corn: 0
[16]; 125 g ai/ha
  Plant response rating, Barnyardgrass: 50
[16]; 500 g ai/ha
  Plant response rating, Barnyardgrass: 90
[17]; 125 g ai/ha
  Plant response rating, Wheat: 0
[17]; 500 g ai/ha
  Plant response rating, Wheat: 50
[18]; 125 g ai/ha
  Plant response rating, Morningglory: 0
[18]; 500 g ai/ha
  Plant response rating, Morningglory: 0
[19]; 125 g ai/ha
  Plant response rating, Velvetleaf: 0
[19]; 500 g ai/ha
  Plant response rating, Velvetleaf: 40
